Data published in US5747477A, “Azo derivatives of 5-aminosalicylic acid” (priority 1995, dated 1998).
Like-named read-outs stand apart in the source and are kept apart here.

Columns and labels:
[1] = test system: PAF-induced hypotension in normotensive rats; assay: Test 2- Inhibition of PAF-induced hypotension in normotensive rats; type: in vivo, Male Sprague-Dawley rats; conditions: intravenous, 3 min. before PAF (0.5 μg/Kg); for ED50: Rattus norvegicus, 0.05 h, read-out: ID50 (dose of test compound required to inhibit hypotension by 50%)
Description: Test 2- Inhibition of PAF-induced hypotension in normotensive rats.
Male Sprague-Dawley rats, weighing 180-220 g, were anesthetized with sodium pentobarbital (50 mg/Kg i.p.). Blood pressure was recorded from the left carotid artery using a Statham pressure transducer coupled to a Beckman R611 recorder. Right and left femoral veins were catheterized to inject test compounds and PAF (0.5 μg/Kg). Test compounds were administered by intravenous injection (1 mL/Kg, dissolved in saline) 3 min. before PAF.
Blood pressure was monitored and percent inhibition of PAF-induced hypotension with respect to controls was calculated.

[2] = test system: platelet aggregation induced by PAF; assay: Test 1-Inhibition of platelet aggregation induced by PAF (C18-PAF, 15 nM); type: cell-based, male New Zealand rabbits; conditions: rabbit platelet rich plasma, 15 nM C18-PAF, read-out: IC50 (concentration of drug required to inhibit platelet aggregatory response by 50%)
Description: Test 1-Inhibition of platelet aggregation induced by PAF.
Platelet rich plasma (PRP) was prepared by centrifuging the blood at 250xg for 10 min. at 4° C. PRP was diluted with platelet-poor plasma (PPP) obtained by further centrifuging at 3000xg for 10 min. The platelet count was adjusted to 3×10^5 cells/mm^3.

ulcerative colitis = conditions: cited from earlier work; for active moiety in ulcerative colitis: Azad Khan et al., Lancet 1977
[3] = after absorption from the colon; cited from earlier work

Row | SMILES | ED50 [1] [mg/kg] | IC50 ([2]; Oryctolagus cuniculus) [nM] | also measured
1 | Cc1nc2cnccc2n1CC1CCN(C(=O)CC(C)(C)c2ccc(N)cc2)CC1 [A, 1-[[1-[3-(4-Aminophenyl)-3-methylbutanoyl]-4-piperidyl]methyl]-1H-2-methylimidazo[4,5-c]pyridine] | 0.099 | 19 | 
2 | Cc1nc2cnccc2n1CC1CCN(C(=O)/C=C(/c2ccccc2)c2ccc(N)cc2)CC1 [B, cis-1-[[1-[3-(4-Aminophenyl)-3-phenylpropenoyl]-4-piperidyl]methyl]-1H-2-methylimidazo[4,5-c]pyridine] |  |  | ID50 (dose of test compound required to inhibit hypotension by 50%) [1]: 0.029 mg/kg; IC50 [2]: 18 nM
3 | Cc1nc2cnccc2n1CC1CCN(C(=O)/C=C(\c2ccccc2)c2ccc(N)cc2)CC1 [C, trans-1-[[1-[3-(4-Aminophenyl)-3-phenylpropenoyl]-4-piperidyl]methyl]-1H-2-methylimidazo[4,5-c]pyridine] |  |  | ID50 (dose of test compound required to inhibit hypotension by 50%) [1]: 0.01 to 0.025 mg/kg; IC50 [2]: 5 nM
4 | Nc1ccc(O)c(C(=O)O)c1 [Compound 5-ASA, 5-aminosalicylic acid] |  |  | active moiety in ulcerative colitis (ulcerative colitis): in ulcerative colitis the active moiety is 5-ASA
5 | Cc1nc2cnccc2n1CC1CCN(C(=O)CN(c2ccccc2)S(=O)(=O)c2ccc(N)cc2)CC1 [D] | 0.088 | 75 | 
6 | CCOC(=O)[C@H](CC(C)C)N(C(=O)c1ccc(N)cc1)S(=O)(=O)c1ccc(Cn2c(C)nc3cnccc32)cc1 [E, N-(4-Aminobenzoyl)-N-[4-(1H-2-methylimidazo[4,5-c]pyridylmethyl)phenylsulfonyl]-L-leucine ethyl ester] | 0.15 | 30 | 
7 | CCOC(=O)[C@H](CC(C)C)N(Cc1ccc(N)cc1)S(=O)(=O)c1ccc(Cn2c(C)nc3cnccc32)cc1 [F, N-(4-Aminobenzyl)-N-[4-(1H-2-methylimidazo[4,5-c]pyridylmethyl)-phenylsulfonyl]-L-leucine ethyl ester] | 0.033 | 12 | 
8 | CCOC[C@H](CC(C)C)N(Cc1ccc(N)cc1)S(=O)(=O)c1ccc(Cn2c(C)nc3cnccc32)cc1 [G, N-(4-Aminobenzyl)-N-[(S)-1-isobutyl-2-ethoxyethyl]-4-(1H-2-methylimidazo[4,5-c]pyridylmethyl)phenylsulfonamide] | 0.14 | 16 | 
9 | Nc1ccc(S(=O)(=O)Nc2ccccn2)cc1 [Sulfapyridine, sulfapyridine] |  |  | metabolism and excretion [3]: metabolised and excreted in the urine; active moiety in ulcerative colitis (ulcerative colitis): acts only as a carrier; side effects of sulfasalazine ascribed to the moiety (ulcerative colitis; Das et al., New Engl. J. Med. 1973): Most of the side effects of sulfasalazine have been ascribed to the sulfapyridine moiety
